Reference: patent US5215916A, “Super glucocorticoid receptors: receptors with increased affinity and specificity for glucocorticoid steriods” (priority 1991, dated 1993)
Structures can show the parent of a compound that is named as a salt.

How the values were obtained:
[1] = system: mouse glucocorticoid receptor; settings: L. I. Smith et al., 1988; cited from earlier work
glucocorticoid receptor = settings: Simons et al., 1987; cited from earlier work
[2] = molecular target: T1, C656G mutant glucocorticoid receptor (Rattus norvegicus, UniProt P06536, C656G/D98G); assay: Competition binding assay with [3H]Dex, COS-7 cytosol, C656G receptor; set-up: Thus the full length receptor was removed from the VARO vector with BamHI and inserted into the SVL vector; expressed in transfected cells; host or cells: COS-7 (cytosol)
T1 sequence (P06536 1-795 D98G/C656G): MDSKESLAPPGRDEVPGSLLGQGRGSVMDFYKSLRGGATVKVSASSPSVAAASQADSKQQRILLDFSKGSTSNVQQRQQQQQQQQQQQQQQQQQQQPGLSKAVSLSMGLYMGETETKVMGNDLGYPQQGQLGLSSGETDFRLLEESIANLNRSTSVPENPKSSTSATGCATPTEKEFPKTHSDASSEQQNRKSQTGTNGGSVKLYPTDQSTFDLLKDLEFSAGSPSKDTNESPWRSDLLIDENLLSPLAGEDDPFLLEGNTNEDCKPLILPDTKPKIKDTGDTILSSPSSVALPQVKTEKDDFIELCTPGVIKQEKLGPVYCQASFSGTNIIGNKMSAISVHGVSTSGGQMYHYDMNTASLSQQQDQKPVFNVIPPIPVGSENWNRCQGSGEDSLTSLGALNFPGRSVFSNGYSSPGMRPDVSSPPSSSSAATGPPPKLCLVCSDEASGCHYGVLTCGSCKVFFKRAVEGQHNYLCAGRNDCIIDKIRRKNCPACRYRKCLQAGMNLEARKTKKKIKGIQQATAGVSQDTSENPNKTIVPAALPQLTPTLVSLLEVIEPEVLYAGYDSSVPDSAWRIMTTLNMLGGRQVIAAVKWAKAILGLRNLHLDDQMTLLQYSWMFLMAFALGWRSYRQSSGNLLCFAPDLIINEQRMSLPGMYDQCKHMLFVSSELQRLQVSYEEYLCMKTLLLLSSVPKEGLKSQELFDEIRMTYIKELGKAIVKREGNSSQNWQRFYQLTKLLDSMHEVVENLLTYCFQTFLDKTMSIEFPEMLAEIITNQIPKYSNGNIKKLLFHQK
Experimental: Monolayer cultures of COS-7 cells were grown in DMEM (Gibco) supplemented with 5% fetal bovine serum (FBS) (Biofluids) at 37° C. in a 5% CO2 incubator. Standard calcium phosphate transfection methods were used to introduce the wild type and mutant receptor expression vectors (pSVL) into COS-7 cells (100 mm plates [Costar] at a cell density of about 10^6 /plate were each treated with 10 μg of plasmid DNA). After ~16 hrs of incubation at 37° C. in a 5% CO2 incubator, the excess calcium phosphate and precipitate were removed by washing with phosphate buffered saline (PBS). The cells were incubated at 37° C. for another ~48 hr in DMEM/ 5% FBS and harvested by trypsinization followed by centrifugation (for 10 min at 1570 ×g) and washing 3 times with PBS. The washed cells were stored at -80° C. until used.
COS-7 cell cytosol containing the steroid-free receptors was prepared by cell lysis at -80° C. and centrifugation at 15,000 ×g and labeled as described for HTC cells (S. S. Simons and P. A. Miller, Biochem 23:6876-6882 (1984)). Briefly, 30% cytosol solutions containing ~21 mM Na2 MoO4 were prepared with three parts COS-7 cell cytosol, 2 parts pH 9.5 TAPS buffer, and 5 parts pH 8.8 TAPS buffer. The total EtOH in each experiment was kept constant and at a level of ≤1%. […] After incubation for 2.5 hr, the [^3 H]Dex-Mes-labeled solutions were quick-frozen at -78° C. for subsequent SDS-polyacrylamide gel electrophoresis analysis. The specifically bound [^3 H]Dex was determined by first adding a 10% dextran-coated charcoal solution (added volume =20% of reaction solution volume) to remove free steroid and then subtracting the nonspecific binding seen in the presence of excess nonradioactive Dex.
Duplicate aliquots (72 μl) of COS-7 cell cytosol (33.5% in pH 8.8 TAPS/27 mM Na2 MoO4 buffer) were treated with 4 μl each of [^3 H]Dex (in pH 8.8 TAPS buffer) and various concentrations of non-radioactive competing steroid (in 20% EtOH in pH 8.8 TAPS buffer) (final concentration of [^3 H]Dex ≈3 ×10^-8 M). The average specific binding was determined after 2.5 or 24 hr of incubation as described above, expressed as percentage of the non-competed control and plotted versus the log10 of the concentration of the competing steroid.
The specificity of steroid binding was determined by Rodbard correction (Rodbard, 1973) of the data from a competition binding assay (S. S. Simons et al., Biochem. Biophys. Res. Comm. 86:793-800 (1979); Miller and Simons, 1988). The initial data were collected from 2.5 hr binding assays because of concerns about the stability of the receptors over longer times.

[3] = molecular target: T1, C656G mutant glucocorticoid receptor; settings: CV-1 cells, FIG. 1; C656G vs wild type
Experimental: The biological activity of wild type (.quadrature.) or C656G mutant ( ) receptors was determined in CV-1 cells as described in the Example Section. The determined amounts of CAT activity from each plate were then plotted as a function of the concentration of dexamethasone added to each.
Subconfluent cultures of CV-1 cells were co-transfected, using the standard calcium phosphate procedure, with 0.2 μg VARO receptor expression vector (containing the mutant receptor driven by the SV40 enhancer and the α-globulin promoter) and 1 μg G46TCO reporter vector (CAT gene driven by the thymidine kinase promoter [to -109 bp] and a 46 bp synthetic GRE derived from the murine mammary tumor virus long terminal repeat) for each 60 mm dish. Cells were incubated overnight at 37° C. in a 5% CO2 incubator with the DNA precipitates, after which they were washed twice with PBS, and fresh medium (Dulbecco's modified Eagle's medium H-16 supplemented with 5% fetal calf serum) was added together with the indicated hormone.
After an additional 24 hr, at 37° C. in a 5% CO2 incubator, extracts were prepared by four freeze-thaw cycles (-75° C., 65° C.) and centrifuged for 5 min at 15,000 xg. Heat-treated extracts (5 min, 65° C.) were normalized for protein content and the amount of expressed CAT enzyme activity was determined by a non-chromatographic assay (M. J. Sleigh, Anal. Biochem. 156:251-256 (1986)).

[4] = system: any other steroid receptors; settings: cited from earlier work
glucocorticoid receptors = settings: cited from earlier work

## C[C@@H]1C[C@H]2[C@@H]3CCC4=CC(=O)C=C[C@]4(C)[C@@]3(F)[C@@H](O)C[C@]2(C)[C@@]1(O)C(=O)COS(C)(=O)=O [Dex-Mes, dexamethasone mesylate]
[1]
  labeling of the identical cysteine in mouse receptor by Dex-Mes: also labeled
Glucocorticoid receptor
  covalent labeling of receptor thiol by Dex-Mes: covalently label just one thiol in the receptor, i.e., cysteine 656

## C[C@@H]1C[C@H]2[C@@H]3CCC4=CC(=O)C=C[C@]4(C)[C@@]3(F)[C@@H](O)C[C@]2(C)[C@@]1(O)C(=O)CO [Dex, dexamethasone]
[2]
  greater preference of C656G than wild type receptor for glucocorticoids vs aldosterone and progesterone: 10-19 fold
[3]
  lower concentrations for Dex induction of CAT activity with C656G than with wild type receptor: ~ 10 fold

## O=[As][O-].[Na+] [arsenite]
[4]
  effect on steroid binding activity of other steroid receptors: not of any other steroid receptors
Glucocorticoid receptors
  effect of preincubation of unbound receptors on steroid binding: eliminates all steroid binding
  effect on steroid binding activity of glucocorticoid receptors: blocks the steroid binding activity of glucocorticoid receptors
